Reference: PubChem BioAssay (NCI)
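Five compound concentrations were applied to cells in 96-well plates for 48 hours; endpoints were derived by simple linear interpolation of the resulting dose-response curve. TGI denotes the concentration required for complete inhibition of growth.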

Legend:
Test in all cases: NCI-60 cell line screen, 48 h
CCRF-CEM leukemia = tested on: CCRF-CEM leukemia
NCI/ADR-RES ovarian = tested on: NCI/ADR-RES ovarian
NCI-H226 lung = tested on: NCI-H226 lung
ACHN renal = tested on: ACHN renal
MOLT-4 leukemia = tested on: MOLT-4 leukemia
HOP-92 NSCLC = tested on: HOP-92 NSCLC
HCC-2998 colon = tested on: HCC-2998 colon
MDA-N = tested on: MDA-N
SR leukemia = tested on: SR leukemia
SNB-19 CNS = tested on: SNB-19 CNS

ClCC1(CCl)COC1
TGI (CCRF-CEM leukemia): > 100 µM
TGI (NCI/ADR-RES ovarian): > 100 µM
TGI (NCI-H226 lung): > 100 µM
TGI (ACHN renal): > 100 µM
TGI (MOLT-4 leukemia): > 100 µM
TGI (HOP-92 NSCLC): > 100 µM
TGI (HCC-2998 colon): > 100 µM
TGI (MDA-N): > 100 µM
TGI (SR leukemia): > 100 µM
TGI (SNB-19 CNS): > 100 µM

O=c1cc(-c2nc3ccccc3[nH]2)[nH]c2nc(-c3nc4ccccc4[nH]3)cc(-c3ccc(Cl)cc3)c12
TGI (CCRF-CEM leukemia): 91.6 µM
TGI (NCI/ADR-RES ovarian): 91.3 µM
TGI (NCI-H226 lung): 49.2 µM
TGI (ACHN renal): 41.6 µM
TGI (MOLT-4 leukemia): 96.4 µM
TGI (HOP-92 NSCLC): 55 µM
TGI (MDA-N): 59.6 µM
TGI (SR leukemia): 46.6 µM
TGI (SNB-19 CNS): > 100 µM

CC[N+](CC)(CC)/C(=N/S(=O)(=O)c1cc(C)c(Cl)cc1S)[N-]S(=O)(=O)c1ccc(Cl)cc1
TGI (CCRF-CEM leukemia): > 100 µM
TGI (NCI/ADR-RES ovarian): > 100 µM
TGI (NCI-H226 lung): > 100 µM
TGI (ACHN renal): > 100 µM
TGI (MOLT-4 leukemia): > 100 µM
TGI (HOP-92 NSCLC): 49.7 µM
TGI (HCC-2998 colon): > 100 µM
TGI (MDA-N): > 100 µM

Cc1onc(-c2c(F)cccc2Cl)c1C(=O)N[C@@H]1C(=O)N2[C@@H]1SC(C)(C)[C@@H]2C(=O)O
TGI (NCI/ADR-RES ovarian): > 100 µM
TGI (NCI-H226 lung): > 100 µM
TGI (ACHN renal): > 100 µM
TGI (HOP-92 NSCLC): > 100 µM
TGI (MDA-N): > 100 µM
TGI (SR leukemia): > 100 µM
TGI (SNB-19 CNS): > 100 µM

Cc1cc(-c2nc3cc(F)ccc3s2)ccc1NC(=O)C(C)N (stereo not given)
TGI (CCRF-CEM leukemia): 3.25 µM
TGI (NCI/ADR-RES ovarian): 10.2 µM
TGI (NCI-H226 lung): > 25 µM
TGI (ACHN renal): 7.83 µM
TGI (MOLT-4 leukemia): 8.42 µM
TGI (HOP-92 NSCLC): 9.41 µM
TGI (HCC-2998 colon): 3.57 µM
TGI (MDA-N): 8.13 µM
TGI (SR leukemia): 5.24 µM
TGI (SNB-19 CNS): 9.63 µM

COc1cc(NCc2ccc3n2-c2ccccc2OC3)cc(OC)c1OC
TGI (CCRF-CEM leukemia): 44.3 µM
TGI (NCI/ADR-RES ovarian): 22.5 µM
TGI (NCI-H226 lung): > 100 µM
TGI (ACHN renal): > 100 µM
TGI (HOP-92 NSCLC): 51.3 µM
TGI (HCC-2998 colon): 51.6 µM
TGI (MDA-N): 72.4 µM
TGI (SR leukemia): 35.6 µM
TGI (SNB-19 CNS): > 100 µM

COc1c2ccoc2c(S(=O)(=O)Nc2ccc(Cl)cc2)c2oc(C)cc(=O)c12
TGI (CCRF-CEM leukemia): > 100 µM
TGI (NCI/ADR-RES ovarian): > 100 µM
TGI (NCI-H226 lung): > 100 µM
TGI (MOLT-4 leukemia): > 100 µM
TGI (HOP-92 NSCLC): > 93.6 µM
TGI (HCC-2998 colon): > 100 µM
TGI (SNB-19 CNS): > 100 µM
